Test results: patent US9809623B2, “α4β7 peptide monomer and dimer antagonists” (Protagonist Therapeutics, Inc., priority 2014, dated 2017)

Assays:
αEβ7 integrin = assay: FACS binding in cynomolgus monkey blood (α4β7 / αEβ7 expressing cells); type: cell-based; settings: cyno blood, 1 nM
Method: Blood from cynomolgus monkeys was also analyzed by FACS.
Binding to αEβ7 integrin in cyno blood was also tested. Cyno blood was incubated with 1 nM Peptide X-Alexa 647, and cells expressing α4β7 or αEβ7 were analyzed by FACS. […] Binding to α4β7 was specific, because it could be blocked in the presence of a large excess (1 uM) of unlabeled Peptide X. Therefore under these conditions, it was concluded that Peptide X binds α4β7, not αEβ7.

[1] = system: cell types in human whole blood; assay: FACS binding specificity in human whole blood; type: cell-based; settings: 1 nM, 1 mM MnCl2
Method: To further evaluate the selectivity of Peptide X in human blood, the fluorescent dye Alexa 647 was conjugated to Peptide X at the same position used for attaching biotin. […] Heparinized human whole blood was supplemented with 1 mM MnCl2, and stained with the Peptide X-Alexa 647 conjugate or biotinylated vedolizumab for 1 hour at room temperature. The samples were fixed (red blood cells lysed) and washed. The vedolizumab samples were stained separately with streptavidin Alexa 647 for stain for 30 minutes at room temperature. FACS analysis was used to assess binding of the peptide or vedolizumab to a broad panel of cell types including NK cells, basophils, monocytes, eosinophils, neutrophils, CD4 naïve T cells, CD4 memory T cells, CD8 naïve T cells, CD8 memory T cells, and B cells. […] The binding specificity for vedolizmab shown in Table 7 is also very similar to that reported in the literature (Soler et al, JPET 330:864-875, 2009).

α4β7 integrin = α4β7 integrin (Homo sapiens, UniProt P13612+P26010, DEL724-798); assay: Surface plasmon resonance (SPR), binding of soluble α4β7 integrin to immobilized biotin-labeled ligand
Chain of α4β7 integrin (P13612 34-977 limits assumed, stated change not applied): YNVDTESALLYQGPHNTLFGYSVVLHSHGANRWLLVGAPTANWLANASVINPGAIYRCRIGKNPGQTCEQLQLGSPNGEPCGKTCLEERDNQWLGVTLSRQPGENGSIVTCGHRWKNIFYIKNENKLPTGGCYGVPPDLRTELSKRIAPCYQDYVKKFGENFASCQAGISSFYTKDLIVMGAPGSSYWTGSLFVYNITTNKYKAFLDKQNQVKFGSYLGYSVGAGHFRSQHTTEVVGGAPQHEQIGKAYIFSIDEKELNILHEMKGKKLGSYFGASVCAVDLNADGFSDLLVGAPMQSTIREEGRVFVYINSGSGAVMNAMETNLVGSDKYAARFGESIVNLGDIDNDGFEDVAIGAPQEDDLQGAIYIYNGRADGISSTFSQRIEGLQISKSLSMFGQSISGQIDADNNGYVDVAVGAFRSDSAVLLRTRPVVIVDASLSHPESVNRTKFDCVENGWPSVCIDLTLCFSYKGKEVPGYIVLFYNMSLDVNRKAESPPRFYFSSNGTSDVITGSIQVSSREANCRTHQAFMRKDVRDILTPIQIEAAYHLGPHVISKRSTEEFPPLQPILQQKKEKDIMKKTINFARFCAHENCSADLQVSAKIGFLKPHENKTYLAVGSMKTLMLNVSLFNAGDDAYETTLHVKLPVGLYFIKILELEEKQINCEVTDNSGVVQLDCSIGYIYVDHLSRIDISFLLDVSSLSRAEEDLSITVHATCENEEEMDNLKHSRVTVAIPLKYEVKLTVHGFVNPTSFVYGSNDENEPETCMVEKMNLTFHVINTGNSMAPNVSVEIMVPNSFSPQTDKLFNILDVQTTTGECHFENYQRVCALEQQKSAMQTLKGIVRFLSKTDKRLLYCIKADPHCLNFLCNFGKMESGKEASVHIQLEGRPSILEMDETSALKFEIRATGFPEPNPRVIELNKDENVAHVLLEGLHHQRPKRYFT
Chain of α4β7 integrin (P26010 20-723 limits assumed, stated change not applied): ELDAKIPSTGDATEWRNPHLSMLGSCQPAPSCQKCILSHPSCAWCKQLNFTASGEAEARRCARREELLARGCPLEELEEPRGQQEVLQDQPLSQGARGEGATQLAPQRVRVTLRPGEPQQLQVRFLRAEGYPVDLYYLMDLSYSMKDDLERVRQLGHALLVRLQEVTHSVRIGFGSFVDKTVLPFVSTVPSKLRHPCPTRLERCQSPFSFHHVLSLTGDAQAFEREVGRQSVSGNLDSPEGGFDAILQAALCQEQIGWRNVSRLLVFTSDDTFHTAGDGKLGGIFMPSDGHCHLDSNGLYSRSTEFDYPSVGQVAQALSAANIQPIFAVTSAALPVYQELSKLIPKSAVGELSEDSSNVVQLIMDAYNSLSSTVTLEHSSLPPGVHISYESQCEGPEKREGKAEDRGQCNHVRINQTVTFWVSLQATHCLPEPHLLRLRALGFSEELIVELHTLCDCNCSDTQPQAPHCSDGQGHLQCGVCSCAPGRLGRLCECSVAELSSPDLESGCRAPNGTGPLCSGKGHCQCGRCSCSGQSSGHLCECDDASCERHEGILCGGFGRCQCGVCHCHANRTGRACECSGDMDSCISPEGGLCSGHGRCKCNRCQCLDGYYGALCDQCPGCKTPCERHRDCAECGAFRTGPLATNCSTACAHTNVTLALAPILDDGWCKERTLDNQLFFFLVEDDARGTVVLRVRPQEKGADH
Text: Surface plasmon resonance (SPR) was used to further evaluate the binding properties of Peptide X. An analog of Peptide X (Peptide X-biotin), which contains a biotin group attached to Peptide X via a PEG linker, was synthesized. Another peptide dimer having the following structure, which is closely related to Peptide X, was also synthesized and biotin-labeled:
• (Peptide Z). Vedolizumab was also chemically biotinylated. Peptide X-biotin, Peptide Z-biotin, or biotin-labeled vedolizumab antibody was immobilized to a streptavidin coated SPR chip, and the binding of soluble α4β7 integrin was measured. […] This half-life is quite long, and may be caused by a tight association between the peptide and the bound Mn^2+ metal ion on the integrin. […] In addition, the KD for Peptide X-biotin was substantially lower than that for Peptide Z-biotin.

[2] = Simulated Intestinal Fluid (SIF) Stability Assay; type: in vitro ADME, porcine; settings: pig, simulated intestinal fluid (SIF) with 1% porcine pancreatin, pH 6.5, Table 4-C, t1/2; > means assay stopped at that time; read-out: SIF (porcine) Min
How it was run: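 Intestinal stability: percent peptide remaining over time, by LC-MS/MS peak-area ratio to internal standard, fitted to first-order decay for half-life. Conditions: 22 μM peptide, 1% pancreatin in pH 6.5 blank FASSIF, 37 °C.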

Plasma Stability Assay = type: in vitro ADME; settings: rat, Table 4-C, t1/2
Method: 0.5 mL of rat plasma (one tube per peptide, volume depends on how many time points are to be collected, 50 μL per time point) was added to each well of a 96-well polypropylene plate, and the tubes were incubated in a heated water bath, preset to 37° C. with gentle shaking. 1 μL of 10 mM peptide stock solution was added to each tub, and then 200 μL of Acetonitrile w/0.1% Formic Acid was added to each tube (1:4). Samples were collected at the following time points: 0, 10, 30, 45, 60, 120, 180 mins. When all time points were collected, the plate was centrifuged at 5000 rpm for 5 mins. LCM analysis was performed by pipetting 100 μL of each sample to appropriate well of a 96-well deep plate. 100 μL of an internal standard peptide (1 ug/mL) was added in Mobile Phase A to each well. The plate was vortexed and injected

[3] = Simulated Gastric Fluid (SGF) Assay; type: in vitro ADME; settings: pig, simulated gastric fluid (SGF) with porcine pepsin, pH 2; Table 4-C, t1/2
Method: SGF was prepared by adding 20 mg NaCl, 32 mg porcine pepsin (MP Biochemicals, catalog 02102599), and 70 μl HCl to 10 ml water (final pH=2). Aliquots of SGF (0.5 ml each) were pre-warmed at 37° C. For each peptide tested, to start the reaction, 1 μl of peptide stock solution (10 mM in DMSO) was added to 0.5 ml SGF and thoroughly mixed such that the final peptide concentration was 20 μM. The reactions were incubated at 37° C. with gentle shaking. At each time point (0, 15, 30, 60 min), 50 μl aliquots were removed and added to 200 ul acetonitrile containing 0.1% formic acid to quench the reaction. Samples were stored at 4° C. until the end of the experiment and centrifuged at 10,000 rpm for 5 minutes. Aliquots of the supernatant were removed, diluted 1:1 into distilled water containing internal standard, and analyzed by LCMS/MS. Percent remaining at each timepoint was calculated based on the peak area response ratio of test compound to internal standard. Time 0 was set to 100%, and all later timepoints were calculated relative to time 0. Half-lives were calculated by fitting to a first-order exponential decay equation using GraphPad.

CC(=O)N[C@@H]1C(=O)N(C)[C@@H](CCCNC(=N)N)C(=O)N[C@@H](CO)C(=O)N[C@@H](CC(=O)O)C(=O)N[C@@H]([C@@H](C)O)C(=O)N[C@@H](CC(C)C)C(=O)N[C@H](C(=O)N[C@@H](Cc2ccc(C(C)(C)C)cc2)C(=O)N[C@@H](CCC(=O)O)CC(=O)N[C@H](CCCCNC(=O)CN(CC(=O)NCCCC[C@@H](NC(=O)C[C@H](CCC(=O)O)NC(=O)[C@H](Cc2ccc(C(C)(C)C)cc2)NC(=O)[C@H]2NC(=O)[C@H](CC(C)C)NC(=O)[C@H]([C@@H](C)O)NC(=O)[C@H](CC(=O)O)NC(=O)[C@H](CO)NC(=O)[C@H](CCCNC(=N)N)N(C)C(=O)[C@@H](NC(C)=O)C(C)(C)SSC2(C)C)C(N)=O)C(=O)CCNC(=O)CCCCCC2(C)C(=CC=CC=CC3=[N+](CCCS(=O)(=O)[O-])c4ccc(S(=O)(=O)O)cc4C3(C)C)N(CCCS(=O)(=O)O)c3ccc(S(=O)(=O)O)cc32)C(N)=O)C(C)(C)SSC1(C)C (single isomer, unassigned) [Peptide X-Alexa 647]
Binding to α4β7+ and αEβ7+ CD4 memory T cells (αEβ7 integrin): bound to α4β7^+, but not αEβ7^+ cells | Percent positive staining, Basophils [1]: 87% | Percent positive staining, CD4 memory T cells [1]: 20% | Percent positive staining, CD4 naïve T cells [1]: 51% | Percent positive staining, CD8 memory T cells [1]: 36% | Percent positive staining, CD8 naïve T cells [1]: 52% | Percent positive staining, CD19+ B cells [1]: 78% | Percent positive staining, Eosinophils [1]: 92% | Percent positive staining, Monocytes [1]: 7% | Percent positive staining, NK cells CD16+ 56+ [1]: 45% | Percent positive staining, Neutrophils [1]: 0.35%

CC(=O)N[C@@H]1C(=O)N(C)[C@@H](CCCNC(=N)N)C(=O)N[C@@H](CO)C(=O)N[C@@H](CC(=O)O)C(=O)N[C@@H]([C@@H](C)O)C(=O)N[C@@H](CC(C)C)C(=O)N[C@H](C(=O)N[C@@H](Cc2ccc(C(C)(C)C)cc2)C(=O)N[C@@H](CCC(=O)O)CC(=O)N[C@H](CCCCNC(=O)CN(CC(=O)NCCCC[C@@H](NC(=O)C[C@H](CCC(=O)O)NC(=O)[C@H](Cc2ccc(C(C)(C)C)cc2)NC(=O)[C@H]2NC(=O)[C@H](CC(C)C)NC(=O)[C@H]([C@@H](C)O)NC(=O)[C@H](CC(=O)O)NC(=O)[C@H](CO)NC(=O)[C@H](CCCNC(=N)N)N(C)C(=O)[C@@H](NC(C)=O)C(C)(C)SSC2(C)C)C(N)=O)C(=O)CCNC(=O)CCOCCOCCOCCOCCNC(=O)CCCC[C@@H]2SC[C@@H]3NC(=O)N[C@@H]32)C(N)=O)C(C)(C)SSC1(C)C [Peptide X-biotin]
KD lower than that for biotin-labeled vedolizumab (α4β7 integrin): 3.8 fold | kd (α4β7 integrin): 0.0000173 s⁻¹ | kon (α4β7 integrin; read-out: ka): 1120 M⁻¹ s⁻¹

CC(=O)N[C@H]1CSSC(C)(C)[C@@H](C(=O)N[C@H](CCCCNC(=O)CN(CC(=O)NCCCC[C@@H](NC(=O)[C@H]2NC(=O)[C@H](CC(C)C)NC(=O)[C@H]([C@@H](C)O)NC(=O)[C@H](CC(=O)O)NC(=O)[C@H](CO)NC(=O)[C@H](CCCNC(=N)N)N(C)C(=O)[C@@H](NC(C)=O)CSSC2(C)C)C(N)=O)C(=O)CCN)C(N)=O)NC(=O)[C@H](CC(C)C)NC(=O)[C@H]([C@@H](C)O)NC(=O)[C@H](CC(=O)O)NC(=O)[C@H](CO)NC(=O)[C@H](CCCNC(=N)N)N(C)C1=O [compound 203, (Ac-C-N-Me-R-S-D-T-L-Pen-k-NH2)2-IDA]
half-life at 22 μM [2]: > 4.88 h | half-life at 20 μM (Plasma Stability Assay): > 6 h | half-life at 20 μM [3]: > 6 h
